Measurements published in patent US7879997B2, “Compounds for the treatment of inflammatory disorders” (Schering Corporation, priority 2005, dated 2011).

Target: T1, purified catalytic domain of recombinant human TACE (rhTACEc) (Homo sapiens, UniProt P78536, N452Q/S266A)
T1 construct: rhTACEc, Residue 215 to 477 with two mutation (S266A and N452Q) and a 6× His tail; 6xHis (C); made in house; host or cells: baculovirus/Hi5 insect cells
Test: TACE kinetic assay, cleavage of internally quenched peptide substrate SPDL-3
Type: biochemical
Experimental: TACE activity is determined by a kinetic assay measuring the rate of increase in fluorescent intensity generated by TACE catalyzed cleavage of an internally quenched peptide substrate (SPDL-3). The purified catalytic domain of recombinant human TACE (rhTACEc, Residue 215 to 477 with two mutation (S266A and N452Q) and a 6× His tail) is used in the assay. It is purified from the baculovirus/Hi5 cells expression system using affinity chromatography. The substrate SPDL-3 is an internally quenched peptide (MCA-Pro-Leu-Ala-Gln-Ala-Val-Arg-Ser-Ser-Ser-Dpa-Arg-NH2), with its sequence derived from the pro-TNFα cleavage site. MCA is (7-Methoxycoumarin-4-yl)acetyl. Dpa is N-3-(2,4-Dinitrophenyl)-L-2,3-diaminopropionyl.
A 50 μl assay mixture contains 20 mM HEPES, pH 7.3, 5 mM CaCl2, 100 μM ZnCl2, 2% DMSO, 0.04% Methylcellulose, 30 μM SPDL-3, 70 pM rhTACEc and a test compound. RhTACEc is pre-incubated with the testing compound for 90 min. at 25° C. Reaction is started by addition of the substrate. The fluorescent intensity (excitation at 320 nm, emission at 405 nm) was measured every 45 seconds for 30 min. using a fluorospectrometer (GEMINI XS, Molecular Devices). Rate of enzymatic reaction is shown as Units per second. Effect of a test compound is shown as % of TACE activity in the absence of the compound.

[1] = Specific TACE inhibitory activity (Ki values)
[2] = TACE inhibitory activity, class letters

T1 sequence (P78536 215-477 S266A/N452Q): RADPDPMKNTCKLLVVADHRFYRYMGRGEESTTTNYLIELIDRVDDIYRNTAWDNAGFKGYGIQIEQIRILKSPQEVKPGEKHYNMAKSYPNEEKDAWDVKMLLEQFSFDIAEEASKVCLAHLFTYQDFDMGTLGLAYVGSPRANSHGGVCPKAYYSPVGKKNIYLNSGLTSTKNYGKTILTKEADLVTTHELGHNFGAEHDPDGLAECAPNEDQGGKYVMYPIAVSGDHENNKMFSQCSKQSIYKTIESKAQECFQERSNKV

Ki [1] [nM]	Ki [2] [nM]	SMILES
59	20 to 100	CCOC(=O)[C@@]1(Cc2ccc(OCc3cc(-c4ccccc4)nc4ccccc34)cc2)CNC[C@@H]1C(=O)NO [Compound A12]
11.7	< 20	O=C1N[C@H](C(=O)NO)[C@@H]1Cc1ccc(OCc2cc(-c3ccccc3)nc3ccccc23)cc1 [Compound B8]
55	20 to 100	O=C(NO)[C@H]1NC(=O)[C@@H]1Cc1ccc(OCc2cc(-c3ccccc3)nc3ccccc23)cc1 [Compound C5]
	100 to 1000	COC(=O)C(Oc1ccc(C[C@H]2C(=O)N[C@@H]2C(=O)NO)cc1)c1cc(-c2ccccc2)nc2ccccc12 (stereo partly shown) [Compound E3]
